This note sets out measurements from patent publication US8404691B2, “Imidazothiazole derivatives having proline ring structure” (Daiichi Sankyo Company, Limited, priority 2009, dated 2013).

Data set [1] can be described thus: Metabolic stability test (microsomal metabolism). Further: tested at 1.1 µM. The format is in vitro ADME. The settings on record: human liver microsomes, 37° C., 30 minutes after addition of NADP+. As for the experimental part: 100 μL of 100 mM phosphate buffer solution (pH 7.4) containing 3 μM test compound was added to 100 μL of reaction solution containing 100 mM phosphate buffer solution (pH 7.4), 30 mM glucose 6-phosphate, 10 mM MgCl2.6H2O, 3 units/mL glucose 6-phosphate 1-dehydrogenase, and 0.3 to 1.5 mgP/mL human liver microsomes and the mixture was incubated at 37° C. for 20 minutes. Then, 70 μL of 100 mM phosphate buffer solution (pH 7.4) containing 3 mM NADP+ was added and the mixture was further incubated at 37° C. for 30 minutes to conduct a microsomal metabolism test. The compound was quantified by the internal standard method using a quadrupole mass spectrometer connected to a high performance liquid chromatography apparatus. The metabolic stability (residual percentage of compound: MS %) was determined according to the following formula: MS(human)(%)=(peak area ratio of test compound after addition of NADP+ and incubation for 30 minutes)/(peak area ratio of test compound before addition of NADP+)×100.
(peak area ratio: peak area of test compound divided by that of internal standard substance)

Data set [2] deals with human lung cancer-derived cell line NCI-H460 having wild-type p53. In words: Cell growth inhibition assay (MTT). The following applies: 72 h, NCI-H460 cells, culturing 3 days, read-out: anti-cellular effect GI50 (50% growth inhibition concentration). It is filed as cell-based. As to the method:
A cell growth inhibition assay was conducted using human lung cancer-derived cell line NCI-H460 having wild-type p53.
NCI-H460 cells were suspended in a medium (RPMI1640 medium containing 10% fetal bovine serum) and the suspension was inoculated in an amount of 500 cells/150 μL/well to a 96-well multiwell plate. A test compound was dissolved in DMSO and this solution was diluted with medium to prepare a sample solution (DMSO concentration: 1% or lower). On the next day of inoculation, medium nonsupplemented with the test compound or the sample solution was added in an amount of 50 μL/well. The MTT assay was conducted immediately after the medium was added in an amount of 50 μL on the next day of cell inoculation, and after the sample solution or the medium was added to cells followed by culturing at 37° C. for 3 days in a 5% CO2 atmosphere. The MTT assay was conducted as shown below.
A 5 mg/mL MTT (3-(4,5-dimethylthiazol-2-yl)-2,5-diphenyltetrazolium bromide, Sigma-Aldrich Co., M-2128) solution was prepared using a phosphate buffer solution (Dulbecco's Phosphate-buffered Saline). This MTT solution was added in an amount of 20 μL/well. Then, the plate was cultured at 37° C. for 4 hours in a 5% CO2 atmosphere. The plate was centrifuged at 1200 rpm for 5 minutes and then the culture supernatant was removed by aspiration using a dispenser. DMSO was added in an amount of 150 μL/well to dissolve generated formazan. The plate was stirred using a plate mixer for uniform color development from each well. The absorbance of each well was measured under conditions of OD 540 nm and reference 660 nm using a plate reader (SpectraMax PLUS384, Molecular Devices, CA, USA).
The OD value measured on the day of adding the sample solution was defined as S. The OD value measured three days after addition of the sample solution was defined as T. The OD value measured three days after addition of the DMSO dilution was defined as C. T/C (%) was determined at each concentration according to the calculation formula shown below to prepare a dose response curve, from which 50% growth inhibition concentration (GI50 value) was calculated. T/C(%)=(T−S)/(C−S)×100

Another data set deals with T1, Mdm2/p53 binding (Homo sapiens, UniProt Q00987, L33E).
T1 construct: Mdm2 amino acids at positions 25 to 108
Description: Mdm2/p53 binding assay (HTRF, His-p53 and GST-Mdm2). The following applies: His-p53 (aa 1-132) and GST-Mdm2 (aa 25-108, L33E), 6.25 nM each, 25° C. for 1 hour. As for the experimental part: Next, a test compound was diluted with DMSO to produce protein buffer solution containing 10% dilution, and this buffer solution was added in an amount of 4 μL/well to the plate.
These dilutions were added in an amount of 8 μL/well (total reaction solution volume: 20 μl/well). Then, the plate was left at 25° C. for 1 hour.
The R value calculated from the well supplemented with His-p53, GST-Mdm2, the test compound, and each antibody was defined as R (sample). The R value calculated from the well supplemented with His-p53, GST-Mdm2, and each antibody but without the test compound was defined as R (control). The R value calculated from the well supplemented with GST-Mdm2, the test compound, and each antibody but without His-p53 was defined as R (background). T/C was calculated from the formula shown below. An IC50 value for Mdm2/p53 binding was calculated by sigmoid fitting. T/C=(R(sample)−R(background))/(R(control)−R(background))

T1 sequence (Q00987 25-108 L33E): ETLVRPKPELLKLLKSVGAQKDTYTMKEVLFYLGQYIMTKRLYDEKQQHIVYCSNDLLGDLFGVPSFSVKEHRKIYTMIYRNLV

On to `CC(C)C1=C(C(=O)N2C[C@H](F)C[C@H]2C(=O)N2CC3(CC3)NC[C@@H]2C)SC2=N[C@@](C)(c3ccc(Cl)nc3)[C@@H](c3ccc(Cl)c(F)c3)N21` [Example 2, (6S)-7-[(4R)-1-{[(5R,6S)-5-(4-chloro-3-fluorophenyl)-6-(6-chloropyridin-3-yl)-3-isopropyl-6-methyl-5,6-dihydroimidazo[2,1-b][1,3]thiazol-2-yl]carbonyl}-4-fluoro-L-prolyl]-6-methyl-4,7-diazaspiro[2.5]octane], for which the “MS (human) % (metabolic stability, residual percentage of compound)” value in data set [1] is on record as 100%.

As to `CC(C)C1=C(C(=O)N2C[C@H](F)C[C@H]2C(=O)N2CC3(CC3)NC[C@H]2C)SC2=N[C@@](C)(c3ccc(Cl)cc3)[C@@H](c3ccc(Cl)cc3)N21` [Example 20], the “MS (human) % (metabolic stability, residual percentage of compound)” value in data set [1] is given as 36%. Further, in data set [2], the GI50 was < 400 nM. The half-inhibitory concentration (IC50) on Mdm2/p53 binding was found to be 1.4 nM.

Consider `CC(C)C1=C(C(=O)N2C[C@H](F)C[C@H]2C(=O)N2CC3(CC3)NC[C@H]2C(=O)O)SC2=N[C@@](C)(c3ccc(Cl)nc3)[C@@H](c3ccc(Cl)c(F)c3)N21` [Example 14], for which the “MS (human) % (metabolic stability, residual percentage of compound)” value in data set [1] turned out to be 100%. The GI50 in data set [2] is 400 to 2500 nM. The molecule further showed an IC50 on Mdm2/p53 binding of 16 nM.

With `CC[C@@H]1CNC2(CC2)CN1C(=O)[C@@H]1C[C@@H](F)CN1C(=O)C1=C(C(C)C)N2C(=N[C@@](C)(c3ccc(Cl)nc3)[C@H]2c2ccc(Cl)cc2)S1` [Example 30], the “MS (human) % (metabolic stability, residual percentage of compound)” value in data set [1] came out at 62%. The GI50 in data set [2] is 400 to 2500 nM. Moreover, the IC50 at Mdm2/p53 binding was 3.1 nM.

Consider `CC(C)C1=C(C(=O)N2C[C@H](F)C[C@H]2C(=O)N2CC3(CC3)N(C)C[C@H]2C)SC2=N[C@@](C)(c3ccc(Cl)nc3)[C@@H](c3ccc(Cl)c(F)c3)N21` [Example 17], for which the “MS (human) % (metabolic stability, residual percentage of compound)” value in data set [1] amounted to 44%. For the same molecule, the GI50 in data set [2] is 400 to 2500 nM. Moreover, at Mdm2/p53 binding, the half-maximal inhibitory concentration (IC50) is 3.3 nM.

With `CC(C)C1=C(C(=O)N2C[C@H](F)C[C@H]2C(=O)N2CC3(CC3)NCC23CC3)SC2=N[C@@](C)(c3ccc(Cl)nc3)[C@@H](c3ccc(Cl)c(F)c3)N21` [Example 8, 4-[(4R)-1-{[(5R,6S)-5-(4-chloro-3-fluorophenyl)-6-(6-chloropyridin-3-yl)-3-isopropyl-6-methyl-5,6-dihydroimidazo[2,1-b][1,3]thiazol-2-yl]carbonyl}-4-fluoro-L-prolyl]-4,9-diazaspiro[2.2.2.2]decane], the “MS (human) % (metabolic stability, residual percentage of compound)” value in data set [1] is reported as 95%. The GI50 in data set [2] was < 400 nM. At Mdm2/p53 binding, this molecule showed an IC50 of 2.2 nM.

On to `CC[C@@H]1CN(C(=O)C(F)(F)F)C2(CC2)CN1C(=O)[C@@H]1C[C@@H](F)CN1C(=O)C1=C(C(C)C)N2C(=N[C@@](C)(c3ccc(Cl)nc3)[C@H]2c2ccc(Cl)c(F)c2)S1` [Example 5, (6R)-7-[(4R)-1-{[(5R,6S)-5-(4-chloro-3-fluorophenyl)-6-(6-chloropyridin-3-yl)-3-isopropyl-6-methyl-5,6-dihydroimidazo[2,1-b][1,3]thiazol-2-yl]carbonyl}-4-fluoro-L-prolyl]-6-ethyl-4-(trifluoroacetyl)-4,7-diazaspiro[2.5]octane], for which, in data set [2], the GI50 is < 400 nM. For the same molecule, on Mdm2/p53 binding, the IC50 turned out to be 5.3 nM.

Turning to `CC(C)C1=C(C(=O)N2C[C@H](F)C[C@H]2C(=O)N2CC3(CC3)NC[C@@H]2CF)SC2=N[C@@](C)(c3ccc(Cl)nc3)[C@@H](c3ccc(Cl)c(F)c3)N21` [Example 31], the “MS (human) % (metabolic stability, residual percentage of compound)” value in data set [1] stood at 6%. Moreover, the GI50 in data set [2] is < 400 nM. In addition, at Mdm2/p53 binding, the half-maximal inhibitory concentration (IC50) came out at 3.1 nM.

For `CC(C)C1=C(C(=O)N2C[C@H](F)C[C@H]2C(=O)N2CC3(CC3)NC[C@H]2C)SC2=N[C@@](C)(c3ccc(Cl)nc3)[C@@H](c3ccc(Cl)c(F)c3)N21` [Example 3, (6R)-7-[(4R)-1-{[(5R,6S)-5-(4-chloro-3-fluorophenyl)-6-(6-chloropyridin-3-yl)-3-isopropyl-6-methyl-5,6-dihydroimidazo[2,1-b][1,3]thiazol-2-yl]carbonyl}-4-fluoro-L-prolyl]-6-methyl-4,7-diazaspiro[2.5]octane], the “MS (human) % (metabolic stability, residual percentage of compound)” value in data set [1] came to 68%.

As to `CC[C@H]1CNC2(CC2)CN1C(=O)[C@@H]1C[C@@H](F)CN1C(=O)C1=C(C(C)C)N2C(=N[C@@](C)(c3ccc(Cl)nc3)[C@H]2c2ccc(Cl)cc2)S1` [Example 29], the “MS (human) % (metabolic stability, residual percentage of compound)” value in data set [1] is recorded as 96%. Besides, in data set [2], the GI50 is < 400 nM. The half-inhibitory concentration (IC50) at Mdm2/p53 binding is 2.6 nM.

Consider `CC(C)C1=C(C(=O)N2C[C@H](F)C[C@H]2C(=O)N2CC3(CC3)NC[C@@H]2C)SC2=N[C@@](C)(c3ccc(Cl)nc3)[C@@H](c3ccc(Cl)cc3)N21` [Example 27], for which the “MS (human) % (metabolic stability, residual percentage of compound)” value in data set [1] was 91%. Also, in data set [2], the GI50 was < 400 nM. The molecule also had an IC50 at Mdm2/p53 binding of 1.9 nM.

`CC(C)C1=C(C(=O)N2C[C@H](F)C[C@H]2C(=O)N2CC3(CC3)NC[C@@H]2C)SC2=N[C@@](C)(c3ccc(Cl)cc3)[C@@H](c3ccc(Cl)c(F)c3)N21` [Example 24]: in data set [1], the “MS (human) % (metabolic stability, residual percentage of compound)” value amounted to 89%. Also, the GI50 in data set [2] is < 400 nM.

For the molecule `CC(C)C1=C(C(=O)N2C[C@H](F)C[C@H]2C(=O)N2CCNC3(CC3)C2)SC2=N[C@@](C)(c3ccc(Cl)cc3)[C@@H](c3ccc(Cl)cc3)N21` [Example 18], the “MS (human) % (metabolic stability, residual percentage of compound)” value in data set [1] is 6%. For the same molecule, the GI50 in data set [2] was < 400 nM. Further, the IC50 on Mdm2/p53 binding was determined as 1.6 nM.

Take `CC[C@@H]1CNC2(CC2)CN1C(=O)[C@@H]1C[C@@H](F)CN1C(=O)C1=C(C(C)C)N2C(=N[C@@](C)(c3ccc(Cl)cc3)[C@H]2c2ccc(Cl)cc2)S1` [Example 22]: in data set [1], the “MS (human) % (metabolic stability, residual percentage of compound)” value came out at 60%. Moreover, in data set [2], the GI50 is < 400 nM. This molecule gave a half-inhibitory concentration (IC50) at Mdm2/p53 binding of 2.6 nM.

As for `CC[C@H]1CNC2(CC2)CN1C(=O)[C@@H]1C[C@@H](F)CN1C(=O)C1=C(C(C)C)N2C(=N[C@@](C)(c3ccc(Cl)nc3)[C@H]2c2ccc(Cl)c(F)c2)S1` [Example 4, (6S)-7-[(4R)-1-{[(5R,6S)-5-(4-chloro-3-fluorophenyl)-6-(6-chloropyridin-3-yl)-3-isopropyl-6-methyl-5,6-dihydroimidazo[2,1-b][1,3]thiazol-2-yl]carbonyl}-4-fluoro-L-prolyl]-6-ethyl-4,7-diazaspiro[2.5]octane], the “MS (human) % (metabolic stability, residual percentage of compound)” value in data set [1] was 100%.

Take `CC(C)C1=C(C(=O)N2C[C@H](F)C[C@H]2C(=O)N2CC3(CC3)NC[C@H]2C)SC2=N[C@@](C)(c3ccc(Cl)cc3)[C@@H](c3ccc(Cl)c(F)c3)N21` [Example 25]: the “MS (human) % (metabolic stability, residual percentage of compound)” value in data set [1] was 47%. For the same molecule, in data set [2], the GI50 was < 400 nM.

With `CC[C@@H]1CNC2(CC2)CN1C(=O)[C@@H]1C[C@@H](F)CN1C(=O)C1=C(C(C)C)N2C(=N[C@@](C)(c3ccc(Cl)nc3)[C@H]2c2ccc(Cl)c(F)c2)S1` [Example 6, (6R)-7-[(4R)-1-{[(5R,6S)-5-(4-chloro-3-fluorophenyl)-6-(6-chloropyridin-3-yl)-3-isopropyl-6-methyl-5,6-dihydroimidazo[2,1-b][1,3]thiazol-2-yl]carbonyl}-4-fluoro-L-prolyl]-6-ethyl-4,7-diazaspiro[2.5]octane], the “MS (human) % (metabolic stability, residual percentage of compound)” value in data set [1] came out at 69%.
